Read-outs that look alike come from different tables or passages of the source. Marks after values point to notes of the source that are not given here.
Legend:
[1] = test system: dd-strain male mice; assay: Acute toxicity test (minimum lethal dose, oral); format: in vivo; conditions: oral administration, three mice per group, mortality seven days after administration
Experimental: Test compounds were orally administered to groups of dd-strain male mice weighing 20 ± 1 g, each group consisting of three mice. Seven days after the administration, minimum lethal dose (MLD) of each compound was determined by observing the mortality.

[2] = biological target: T1, A₂ receptor (Rattus norvegicus, UniProt P30543); assay: Adenosine A₂ receptor binding test (³H-NECA binding); conditions: for Ki: ³H-NECA binding; for inhibition at 0.1 µM / inhibition at 1 µM / inhibition at 10 µM / inhibition at 100 µM: read-out: Inhibition (%) A₂ Receptor
T1 construct: from tissue; host or cells: rat corpus striatum membrane preparation
T1 sequence (P30543 whole entry): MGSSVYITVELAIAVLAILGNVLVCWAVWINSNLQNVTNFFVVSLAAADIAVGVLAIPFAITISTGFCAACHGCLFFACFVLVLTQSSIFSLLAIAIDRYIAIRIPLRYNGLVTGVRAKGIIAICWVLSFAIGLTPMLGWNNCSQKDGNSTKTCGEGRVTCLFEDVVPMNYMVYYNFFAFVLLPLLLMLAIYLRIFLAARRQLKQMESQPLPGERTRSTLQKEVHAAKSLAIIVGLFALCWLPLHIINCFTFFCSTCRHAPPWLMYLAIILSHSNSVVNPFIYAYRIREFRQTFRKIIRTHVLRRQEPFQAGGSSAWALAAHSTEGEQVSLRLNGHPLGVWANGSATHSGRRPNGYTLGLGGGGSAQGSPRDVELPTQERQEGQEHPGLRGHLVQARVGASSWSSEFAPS

[3] = test system: MPTP-treated C57BL/6 mice; assay: Effect on locomotor activity in Parkinson's disease model in mice (MPTP); format: in vivo; conditions: for Amount of Active Movements (average count ± S.E.M): MPTP (+)
Experimental: The experiment was performed by using several groups of 7-weeks-old male C57BL/6 mice (weighing 20 to 24 g, Japan SLC), each group consisting of 8 mice. MPTP (Aldrich Chemical Co., Inc.) dissolved in a physiological saline solution (Otsuka Pharmaceutical Co., Ltd.) was intraperitoneally administered to each mouse once a day for five consecutive days at a dose of 30 mg/kg. A test compound was suspended in injectable distilled water (Otsuka Phamaceutical Co., Ltd.) containing Tween 80 [polyoxyethylene (20) sorbitan monooleate]. L-DOPA (Kyowa Hakko Kogyo Co., Ltd.) was suspended in 0.3% CMC (sodium carboxylmethylcellulose) and bromocriptine was suspended in injectable distilled water. Thirty minutes after the final MPTP administration, the test compound suspensions and the control suspension [injectable distilled water (Otsuka Pharmaceutical Co., Ltd.) containing Tween 80] containing no test compound were orally administered to separate groups of the mice (0.1 ml per 10 g of body weight). […] Statistical comparison of the values was carried out by Student's t-test.

[4] = test system: Haloperidol-Induced Catalepsy; assay: Effect on haloperidol-induced catalepsy; format: in vivo, mice; conditions: for ED50: Mus musculus, 1 h, read-out: ED₅₀; for Number of the Animals Showing Remission: of five mice, catalepsy score not more than 4 points; for Number of the Animals Showing Remission / Remission Rate (%) / Total Score: 10 mg/kg orally; for Remission Rate (%): rate of decrease in total score based on control group; for Total Score: total catalepsy score of five mice (25 points at the full), haloperidol 1.0 mg/kg i.p.
Method in brief: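 Mice got haloperidol 1.0 mg/kg i.p. in 0.3% CMC, then test compounds orally 1 hr later in 0.3% CMC or Tween 80/water. Catalepsy was scored on a 4.5 cm-high bar 1 hr after dosing; remission meant score ≤4 points. ED₅₀ came from Probit analysis.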

[5] = test system: Rats with a 6-Hydroxydopamine-Induced Unilateral Lesion of the Nigrostriatal Dopamine Pathway; assay: Augmentation of apomorphine-induced contralateral rotation in 6-hydroxydopamine-lesioned rats; format: in vivo; conditions: test compound 1 mg/kg orally 30 minutes before apomorphine 0.1 mg/kg s.c.; 150 minutes
Experimental: Then, the animals were anesthetized with sodium pentobarbital (30 mg/kg, i.p., Dainippon Pharm. Co., Ltd.) and the nigrostriatal pathway was lesioned by injection of 6-hydroxydopamine hydrobromide (8 µg, Sigma Co.) into the left medial forebrain bundle. 6-Hydroxydopamine hydrobromide was dissolved in physiological saline containing 0.05% L-ascorbic acid (Wako Pure Chem. Industries, Ltd.) to make 2 µl of solution and injected over 3 minutes.
More than 10 days after surgery, each rat was placed in a plastic bowl (30 cm in diameter). […] The number of rotations was counted with an automated rotometer, in which each 180° turn was counted as a rotation.
Test compounds were suspended in 0.3% sodium carboxymethylcellulose and administered orally at a dose of 1 mg/kg 30 minutes before the injection of apomorphine (0.1 mg/kg, s.c.). The counts of rotations were summed up every 5 minutes for 150 minutes after apomorphine administration. The total rotation counts induced by apomorphine (0.1 mg/kg, s.c.) with and without a test compound were statistically compared, using the same animals. Rats were allowed to rest more than 5 days between each experiment. Statistical comparison of the values was carried out by Sign-Wilcoxon test.

[6] = biological target: T2, A₁ receptor (Cavia porcellus, UniProt P47745); assay: Adenosine A₁ receptor binding test (³H-CHA binding); parameters: species or system guinea pig; conditions: for inhibition at 100 µM: 10⁻⁴M; for inhibition at 100 µM / inhibition at 10 µM: guinea pig cerebrum; for inhibition at 10 µM: 10⁻⁵M
T2 construct: from tissue; host or cells: guinea pig cerebrum membrane preparation
T2 sequence (P47745 1-326): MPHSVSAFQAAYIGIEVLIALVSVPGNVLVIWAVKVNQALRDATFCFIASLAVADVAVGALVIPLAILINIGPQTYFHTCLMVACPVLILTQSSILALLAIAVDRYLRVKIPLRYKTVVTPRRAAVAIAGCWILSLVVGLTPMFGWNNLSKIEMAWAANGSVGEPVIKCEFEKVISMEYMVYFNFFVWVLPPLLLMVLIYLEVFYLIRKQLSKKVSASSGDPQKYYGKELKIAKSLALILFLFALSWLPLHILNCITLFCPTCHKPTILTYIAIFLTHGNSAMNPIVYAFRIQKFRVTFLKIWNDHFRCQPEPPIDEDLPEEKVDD
Experimental: Cerebrum of a guinea pig was suspended in ice-cooled 50 mM Tris hydroxymethyl aminomethane hydrochloride (Tris HCl) buffer (pH 7.7) by using Polytron homogenizer (manufactured by […] Co.). […] The suspension was centrifuged under the same conditions, and the final precipitate was suspended once again in 50 mM Tris HCl buffer to give a tissue concentration of 100 mg (wet weight)/ml. The tissue suspension was incubated at 37°C for 30 minutes in the presence of 0.02 unit/mg tissue of adenosine deaminase (manufactured by Sigma Co.). The tissue suspension was then centrifuged (50,000 x g, 10 minutes), and 50 mM Tris HCl buffer was added to the precipitate to adjust the concentration of tissue to 10 mg (wet weight)/ml. […] The mixture solution was allowed to stand at 25°C for 90 minutes and then rapidly filtered by suction through a glass fiber filter (GF/C manufactured by Whatman Co.). […] The radioactivity on the filter was determined with a liquid scintillation counter (manufactured by Packard Instrument Co.). […] The inhibition constant (Ki value) shown in the table was calculated by the Cheng-Prusoff's equation.

[7] = biological target: T1, A₂ receptor; assay: Adenosine A₂ receptor binding test (³H-CGS 21680 binding); conditions: [^3H]CGS 21680 was used, rat corpus striatum, read-out: A2 Receptor Inhibition (%)
Experimental: The similar procedure as in the above-described adenosine A₁ receptor binding test was repeated using rat corpus striatum to obtain the final precipitate of the tissue thereof. The precipitate was suspended in 50 mM Tris HCl buffer containing 10 mM magnesium chloride and 0.02 unit/mg tissue of adenosine deaminase (manufactured by Sigma Co.) to give a tissue concentration of 5 mg (wet weight)/ml.
The similar procedure as above was repeated to determine the radioactivity bound to the A₂ receptors using 50 µl of CGS 21680 labeled with tritium [³H-2-[p-(2-carboxyethyl)-phenethylamino]-5'-(N-ethylcarboxamide)adenosine: 40 Ci/mmol, manufactured by New England Nuclear Co. (J. Pharmacol. Exp. Ther., 251, 888 (1989)] (final concentration: 4.0 nM) in place of 50 µl of the mixture of N-ethylcarboxamidoadenosine labeled with tritium (³H-NECA: 26 Ci/mmol, manufactured by Amersham Co.) (final concentration: 3.8 nM) and cyclopentyladenosine (CPA, manufactured by Sigma Co.) (final concentration: 50 nM).
The inhibition rate of the test compound against the binding of A₂ receptors (³H-CGS 21680 binding) was calculated by the following equation: [formula] [Notes] • 1. "B" means the amount of radioactivity of ³H-CGS 21680 bound in the presence of a test compound at a concentration shown in Table 4. • 2. "T" means the amount of radioactivity of ³H-CGS 21680 bound in the absence of a test compound. • 3. "N" means the amount of radioactivity of ³H-CGS 21680 bound in the presence of 100 µM CPA.

[8] = test compound 10 mg/kg orally, 30 minutes starting 30 minutes after administration
[9] = test compound 2.5 mg/kg orally, 30 minutes starting 30 minutes after administration
[10] = ten mice at each dose, effective = catalepsy score 3 or less, Probit analysis, oral

Row | Compound | MLD [1] | Ki [2] | Number of the Animals Showing Remission [4] | Remission Rate (%) [4] | Total Score [4] | total amount of rotations (average count ± S.E.M.) test compound + apomorphine [5] | inhibition at 100 µM [6] | inhibition at 10 µM [6] | inhibition at 0.1 µM [2] | inhibition at 1 µM [2] | inhibition at 10 µM [2] | inhibition at 100 µM [2] | Amount of Active Movements (average count ± S.E.M) [3, 9] | ED50 [4, 10] | other results
1 | CCn1c(=O)c2c(nc(/C=C/c3ccc(OC)c(C)c3OC)n2C)n(CC)c1=O [Compound 14, (E)-8-(2,4-Dimethoxy-3-methylstyryl)-1,3-diethyl-7-methylxanthine] | > 300 mg/kg | 1.6 nM | 5 | 92% | 1 | 1378 ± 216 count | – | – | – | – | – | – | – | – | Amount of Active Movements (average count ± S.E.M) [3, 8]: 817 ±163.1 count; ED50 ([4]; po): 0.6 mg/kg
2 | CCn1c(=O)c2c(nc(/C=C/c3ccc(OC)c(OC)c3OC)n2C)n(CC)c1=O [Compound 8, (E)-1,3-Diethyl-7-methyl-8-(2,3,4-trimethoxystyryl)xanthine] | > 300 mg/kg | 3.9 nM | 5 | 92% | 2 | 1406 ± 155 count | 94% | 89% | 80% | 99% | 95% | 74% | 800 ±156.8 count | 0.23 mg/kg | –
3 | CC(C)C[C@H]1C(=O)N2CCC[C@H]2[C@]2(O)O[C@](NC(=O)[C@@H]3C=C4c5cccc6[nH]c(Br)c(c56)C[C@H]4N(C)C3)(C(C)C)C(=O)N12 [Bromocriptine, bromocriptine, reference compound] | – | – | – | – | – | – | – | – | – | – | – | – | – | – | inhibitory activity against the depression of locomotor activity caused by MPTP ([3]; mouse, in vivo): only a weak inhibitory activity
4 | CCn1c(=O)c2c(nc(/C=C/c3cc(OC)c4c(c3)OCO4)n2C)n(CC)c1=O [Compound 107, (E)-1,3-Diethyl-8-(3-methoxy-4,5-methylenedioxystyryl)-7-methylxanthine] | > 100 mg/kg | – | 5 | 92% | 3 | 1490 ± 146 count | – | – | – | – | – | – | 604 ±192.6 count | 0.01 mg/kg | inhibition at 1 µM ([7]; 10^-6M): 84%; inhibition at 0.1 µM ([7]; 10^-7M): 93%
5 | N[C@@H](Cc1ccc(O)c(O)c1)C(=O)O [L-DOPA, reference compound] | – | – | – | – | – | – | – | – | – | – | – | – | – | – | Amount of Active Movements (average count ± S.E.M) ([3]; L-DOPA 300 mg/kg orally): 561 ±271.01^1) count; inhibitory activity against the depression of locomotor activity caused by MPTP ([3]; oral, L-DOPA 300 mg/kg, bromocriptine 40 mg/kg, Compounds (I) 10 mg/kg or less than 10 mg/kg): only a weak inhibitory activity
6 | CCn1c(=O)c2c(nc(/C=C/c3ccc(OC)c(OC)c3)n2C)n(CC)c1=O [Compound 2, (E)-8-(3,4-Dimethoxystyryl)-1,3-diethyl-7-methylxanthine] | > 300 mg/kg | – | 5 | 80% | 2 | 1584 ± 196 count | – | – | – | – | – | – | 1265 ±316.9 count | 0.03 mg/kg | Amount of Active Movements (average count ± S.E.M) ([3]; test compound 0.63 mg/kg orally, 30 minutes starting 30 minutes after administration): 610 ±147.9 count
7 | COc1ccc(/C=C/c2nc3c(c(=O)n(C)c(=O)n3C)n2C)c(OC)c1OC [Compound 20, (E)-8-(2,3,4-Trimethoxystyryl)caffeine] | > 300 mg/kg | 50 nM | 5 | 72% | 7 | – | 1% | 11% | 51% | 83% | 90% | 88% | 937 ±189.5 count | 0.35 mg/kg | Ki ([6]; Cheng-Prusoff's equation): > 100000 nM; Ratio (A₁/A₂) ([2]; ratio of Ki values A₁/A₂): > 2,000
8 | CCn1c(=O)c2c(nc(/C=C/c3ccc(OC)c(C)c3C)n2C)n(CC)c1=O [Compound 10, (E)-1,3-Diethyl-8-(4-methoxy-2,3-dimethylstyryl)-7-methylxanthine] | > 300 mg/kg | 2 nM | 5 | 68% | – | 1637 ± 127 count | 56% | 57% | 91% | 94% | 90% | 93% | – | 0.24 mg/kg | Amount of Active Movements (average count ± S.E.M) [3, 8]: 754 ±174.2 count
